The text below walks through data of patent US8410117B2, “Imidazopyrimidine derivatives” (Hoffmann-La Roche Inc., priority 2010, dated 2013).

T1 sequence (Q9Y233 1-779 isoform Q9Y233-1): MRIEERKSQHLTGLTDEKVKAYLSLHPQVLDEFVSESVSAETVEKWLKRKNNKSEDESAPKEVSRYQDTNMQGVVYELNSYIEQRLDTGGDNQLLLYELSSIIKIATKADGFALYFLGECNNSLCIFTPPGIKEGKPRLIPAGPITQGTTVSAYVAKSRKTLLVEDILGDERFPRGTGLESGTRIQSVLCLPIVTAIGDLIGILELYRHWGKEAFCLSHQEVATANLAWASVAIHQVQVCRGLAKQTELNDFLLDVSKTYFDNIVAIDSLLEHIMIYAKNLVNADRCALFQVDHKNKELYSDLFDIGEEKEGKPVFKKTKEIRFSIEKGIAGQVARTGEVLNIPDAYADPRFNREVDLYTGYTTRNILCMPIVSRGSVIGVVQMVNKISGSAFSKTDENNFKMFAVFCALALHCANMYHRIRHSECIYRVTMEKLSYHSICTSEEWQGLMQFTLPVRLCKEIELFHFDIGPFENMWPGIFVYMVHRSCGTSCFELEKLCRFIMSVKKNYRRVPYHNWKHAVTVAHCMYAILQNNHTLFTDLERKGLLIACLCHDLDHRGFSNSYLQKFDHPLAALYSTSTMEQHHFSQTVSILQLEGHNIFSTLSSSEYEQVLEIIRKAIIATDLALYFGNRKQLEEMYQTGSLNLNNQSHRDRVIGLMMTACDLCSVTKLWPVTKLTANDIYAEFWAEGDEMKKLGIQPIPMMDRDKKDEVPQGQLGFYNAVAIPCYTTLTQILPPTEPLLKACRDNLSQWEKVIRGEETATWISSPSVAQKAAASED

This assay addresses T1, human PDE10A (Homo sapiens, UniProt Q9Y233).
T1 construct: The human PDE10A full length assay; purchased Enzo Life Science, Lausen, Switzerland SE-534
The assay can be described thus: human PDE10A full length Scintillation Proximity Assay (SPA). The class given is biochemical. Conditions: 50 nM cGMP and 50 nM [3H]-cGMP, 20 minutes at room temperature; read-out: PDE10A inhibition IC50. The procedure: The following test was carried out in order to determine the activity of the compounds of the present invention. PDE10 activity of the compounds of the present invention was determined using a Scintillation Proximity Assay (SPA)-based method similar to the one previously described (Fawcett, L. et al., Proc Natl Acad Sci USA (2000) 97(7):3702-3707).
The human PDE10A full length assay was performed in 96-well micro titer plates. The reaction mixture of 50 μl contained 20 mM HEPES pH=7.5/10 mM MgCl2/0.05 mg/ml BSA (Sigma cat. #A-7906), 50 nM cGMP (Sigma, cat. #G6129) and 50 nM [^3H]-cGMP (GE Healthcare, cat. #TRK392 S.A. 13.2 Ci/mmol), 3.75 ng/well PDE10A enzyme (Enzo Life Science, Lausen, Switzerland cat #SE-534) with or without a specific test compound. A range of concentrations of the potential inhibitor was used to generate data for calculating the concentration of inhibitor resulting in 50% of the effect (e.g. IC50, the concentration of the competitor inhibiting PDE10A activity by 50%). Non-specific activity was tested without the enzyme. The reaction was initiated by the addition of the substrate solution (cGMP and [^3H]-cGMP) and allowed to progress for 20 minutes at room temperature. The reaction was terminated by adding 25 μl of YSi-SPA scintillation beads (GE Healthcare, cat. #RPNQ0150) in 18 mM zinc sulphate solution (stop reagent). After 1 h under shaking, the plate was centrifuged one minute at 170 g to allow beads to settle. Afterwards, radioactive counts were measured on a Perkin Elmer TopCount Scintillation plate reader.
Background: Scintillation proximity formats need no separation of bound from free tracer.
`COCCCNC(=O)c1cnn(C)c1C(=O)Nc1ccn2cc(-c3ccccc3)nc2n1` [Example 39, 2-Methyl-2H-pyrazole-3,4-dicarboxylic acid 4-[(3-methoxy-propyl)-amide]3-[(2-phenyl-imidazo[1,2-a]pyrimidin-7-yl)-amide]]: the IC50 was found to be 86.4 nM. With `O=C(NCC(F)(F)F)c1nccnc1C(=O)Nc1ccn2cc(-c3ccccc3)nc2n1` [Example 43, Pyrazine-2,3-dicarboxylic acid 2-[(2-phenyl-imidazo[1,2-a]pyrimidin-7-yl)-amide]3-[(2,2,2-trifluoro-ethyl)-amide]] the figure was 900 nM; with `O=C(Nc1ccn2cc(-c3ccccc3)nc2n1)c1cccnc1C(=O)N1CCC1` [Example 44, 2-(Azetidine-1-carbonyl)-N-(2-phenyl-imidazo[1,2-a]pyrimidin-7-yl)-nicotinamide], 813 nM. As to `COc1cccc(-c2cn3ccc(NC(=O)c4c(C(=O)N5CCC5)cnn4C)nc3n2)c1` [Example 45, 4-(Azetidine-1-carbonyl)-2-methyl-2H-pyrazole-3-carboxylic acid [2-(3-methoxy-phenyl)-imidazo[1,2-a]pyrimidin-7-yl]-amide], the IC50 came to 8.3 nM. For the molecule `COCCNC(=O)c1cnn(C)c1C(=O)Nc1ccn2cc(-c3ccccc3)nc2n1` [Example 46, 2-Methyl-2H-pyrazole-3,4-dicarboxylic acid 4-[(2-methoxy-ethyl)-amide]3-[(2-phenyl-imidazo[1,2-a]pyrimidin-7-yl)-amide]], the IC50 is 785 nM. With `CCN(CC)C(=O)c1cnn(C)c1C(=O)Nc1ccn2cc(-c3ccccc3)nc2n1` [Example 47, 2-Methyl-2H-pyrazole-3,4-dicarboxylic acid 4-diethylamide 3-[(2-phenyl-imidazo[1,2-a]pyrimidin-7-yl)-amide]] the figure was 15.2 nM; with `Cn1ncc(C(=O)N2CCCC2)c1C(=O)Nc1ccn2cc(-c3ccccc3)nc2n1` [Example 48, 2-Methyl-4-(pyrrolidine-1-carbonyl)-2H-pyrazole-3-carboxylic acid (2-phenyl-imidazo[1,2-a]pyrimidin-7-yl)-amide], 3.5 nM. With `CCN(C)C(=O)c1cnn(C)c1C(=O)Nc1ccn2cc(-c3ccccc3)nc2n1` [Example 49, 2-Methyl-2H-pyrazole-3,4-dicarboxylic acid 4-(ethyl-methyl-amide) 3-[(2-phenyl-imidazo[1,2-a]pyrimidin-7-yl)-amide]] the figure was 1.9 nM; with `CCNC(=O)c1cnn(C)c1C(=O)Nc1ccn2cc(-c3ccccc3)nc2n1` [Example 50, 2-Methyl-2H-pyrazole-3,4-dicarboxylic acid 4-ethylamide 3-[(2-phenyl-imidazo[1,2-a]pyrimidin-7-yl)-amide]], 24.4 nM; with `Cn1ncc(C(=O)NC2CC2)c1C(=O)Nc1ccn2cc(-c3ccccc3)nc2n1` [Example 51, 2-Methyl-2H-pyrazole-3,4-dicarboxylic acid 4-cyclopropylamide 3-[(2-phenyl-imidazo[1,2-a]pyrimidin-7-yl)-amide]], 14.8 nM. Turning to `Cn1ncc(C(=O)N2CCCCC2)c1C(=O)Nc1ccn2cc(-c3ccccc3)nc2n1` [Example 52, 2-Methyl-4-(piperidine-1-carbonyl)-2H-pyrazole-3-carboxylic acid (2-phenyl-imidazo[1,2-a]pyrimidin-7-yl)-amide], the IC50 is 2.9 nM.

Turning to `CN(CCO)C(=O)c1cnn(C)c1C(=O)Nc1ccn2cc(-c3ccccc3)nc2n1` [Example 53, 2-Methyl-2H-pyrazole-3,4-dicarboxylic acid 4-[(2-hydroxy-ethyl)-methyl-amide]3-[(2-phenyl-imidazo[1,2-a]pyrimidin-7-yl)-amide]], the IC50 turned out to be 23.6 nM. `CC(C)N(C)C(=O)c1cnn(C)c1C(=O)Nc1ccn2cc(-c3ccccc3)nc2n1` [Example 54, 2-Methyl-2H-pyrazole-3,4-dicarboxylic acid 4-(isopropyl-methyl-amide) 3-[(2-phenyl-imidazo[1,2-a]pyrimidin-7-yl)-amide]]: the IC50 stood at 34.3 nM. With `COCCN(C)C(=O)c1cnn(C)c1C(=O)Nc1ccn2cc(-c3ccccc3)nc2n1` [Example 55, 2-Methyl-2H-pyrazole-3,4-dicarboxylic acid 4-[(2-methoxy-ethyl)-methyl-amide]3-[(2-phenyl-imidazo[1,2-a]pyrimidin-7-yl)-amide]] the figure was 8.5 nM; with `CCCN(C)C(=O)c1cnn(C)c1C(=O)Nc1ccn2cc(-c3ccccc3)nc2n1` [Example 56, 2-Methyl-2H-pyrazole-3,4-dicarboxylic acid 4-(methyl-propyl-amide) 3-[(2-phenyl-imidazo[1,2-a]pyrimidin-7-yl)-amide]], 17.3 nM; with `CCCNC(=O)c1cnn(C)c1C(=O)Nc1ccn2cc(-c3ccccc3)nc2n1` [Example 57, 2-Methyl-2H-pyrazole-3,4-dicarboxylic acid 3-[(2-phenyl-imidazo[1,2-a]pyrimidin-7-yl)-amide]-4-propylamide], 23 nM.

Consider `Cn1ncc(C(=O)NCC2CC2)c1C(=O)Nc1ccn2cc(-c3ccccc3)nc2n1` [Example 58, 2-Methyl-2H-pyrazole-3,4-dicarboxylic acid 4-cyclopropylmethyl-amide 3-[(2-phenyl-imidazo[1,2-a]pyrimidin-7-yl)-amide]], for which the IC50 was 27.3 nM. With `Cn1ncc(C(=O)NC2CCC2)c1C(=O)Nc1ccn2cc(-c3ccccc3)nc2n1` [Example 59, 2-Methyl-2H-pyrazole-3,4-dicarboxylic acid 4-cyclobutylamide 3-[(2-phenyl-imidazo[1,2-a]pyrimidin-7-yl)-amide]] the figure was 21.1 nM; with `CC(C)NC(=O)c1cnn(C)c1C(=O)Nc1ccn2cc(-c3ccccc3)nc2n1` [Example 60, 2-Methyl-2H-pyrazole-3,4-dicarboxylic acid 4-isopropylamide 3-[(2-phenyl-imidazo[1,2-a]pyrimidin-7-yl)-amide]], 80.6 nM; with `Cn1ncc(C(=O)N2CCC2)c1C(=O)Nc1ccn2cc(-c3cccc(OC(F)(F)F)c3)nc2n1` [Example 61, 4-(Azetidine-1-carbonyl)-2-methyl-2H-pyrazole-3-carboxylic acid [2-(3-trifluoromethoxy-phenyl)-imidazo[1,2-a]pyrimidin-7-yl]-amide], 23.5 nM.

For the molecule `CCOC(=O)c1cnn(CC)c1C(=O)Nc1ccn2cc(-c3ccccc3)nc2n1` [Example 62, 1-Ethyl-5-(2-phenyl-imidazo[1,2-a]pyrimidin-7-ylcarbamoyl)-1H-pyrazole-4-carboxylic acid ethyl ester], the IC50 is 12.9 nM.

Regarding `Cn1ncc(C(=O)N2CCC2)c1C(=O)Nc1ccn2cc(-c3cccc(Cl)c3)nc2n1` [Example 63, 4-(Azetidine-1-carbonyl)-2-methyl-2H-pyrazole-3-carboxylic acid [2-(3-chloro-phenyl)-imidazo[1,2-a]pyrimidin-7-yl]-amide], the IC50 was 4.8 nM.

`CCn1ncc(C(=O)NC)c1C(=O)Nc1ccn2cc(-c3ccccc3)nc2n1` [Example 64, 2-Ethyl-2H-pyrazole-3,4-dicarboxylic acid 4-methylamide 3-[(2-phenyl-imidazo[1,2-a]pyrimidin-7-yl)-amide]]: the IC50 was found to be 6.5 nM. With `CNC(=O)c1[nH]nnc1C(=O)Nc1ccn2cc(-c3ccccc3)nc2n1` [Example 65, 1H-[1,2,3]Triazole-4,5-dicarboxylic acid 5-methylamide 4-[(2-phenyl-imidazo[1,2-a]pyrimidin-7-yl)-amide]] the figure was 34.8 nM; with `Cn1cc(C(=O)Nc2ccn3cc(-c4ccccc4)nc3n2)c(C(=O)N2CCC2)n1` [Example 66, 3-(Azetidine-1-carbonyl)-1-methyl-1H-pyrazole-4-carboxylic acid (2-phenyl-imidazo[1,2-a]pyrimidin-7-yl)-amide], 11.5 nM; with `CCN(C)C(=O)c1nn(C)cc1C(=O)Nc1ccn2cc(-c3ccccc3)nc2n1` [Example 67, 1-Methyl-1H-pyrazole-3,4-dicarboxylic acid 3-(ethyl-methyl-amide) 4-[(2-phenyl-imidazo[1,2-a]pyrimidin-7-yl)-amide]], 25.7 nM. The figure for `CCN(C)C(=O)c1cn(C)nc1C(=O)Nc1ccn2cc(-c3ccccc3)nc2n1` [Example 68, 1-Methyl-1H-pyrazole-3,4-dicarboxylic acid 4-(ethyl-methyl-amide) 3-[(2-phenyl-imidazo[1,2-a]pyrimidin-7-yl)-amide]] is 37.7 nM.

In the case of `CCn1ncc(C(=O)N2CCC2)c1C(=O)Nc1ccn2cc(-c3ccccc3)nc2n1` [Example 69, 4-(Azetidine-1-carbonyl)-2-ethyl-2H-pyrazole-3-carboxylic acid (2-phenyl-imidazo[1,2-a]pyrimidin-7-yl)-amide], the IC50 stood at 4.4 nM. The figure for `CN(CCC#N)C(=O)c1cnn(C)c1C(=O)Nc1ccn2cc(-c3ccccc3)nc2n1` [Example 70, 2-Methyl-2H-pyrazole-3,4-dicarboxylic acid 4-[(2-cyano-ethyl)-methyl-amide]3-[(2-phenyl-imidazo[1,2-a]pyrimidin-7-yl)-amide]] is 33.2 nM.

A word on the IC50: it is the concentration needed to halve the response being measured.
